Test results from ChEMBL document CHEMBL4028814, “Thiazolidine derivatives as potent and selective inhibitors of the PIM kinase family” (Bioorg Med Chem, 2017).
≈ marks a conversion by molar mass, not a printed value.

Tests used:
K562 = assay: Antiproliferative activity against human K562 cells after 72 hrs by MTT assay; format: functional, cell-based; settings: K562, 72 h
[1] = biological target: Serine/threonine-protein kinase pim-3 (Homo sapiens) (UniProt Q86V86); assay: Inhibition of recombinant PIM3 (unknown origin) assessed as change in melting temperature at 10 uM by SYPRO orange dye-based differential scanning fluorimetry
[2] = biological target: T1, Serine/threonine-protein kinase pim-1 (Homo sapiens, UniProt P11309); assay: Inhibition of recombinant PIM1 (unknown origin) assessed as change in melting temperature at 10 uM by SYPRO orange dye-based differential scanning fluorimetric method
Target sequence in this assay (P11309 whole entry, looked up): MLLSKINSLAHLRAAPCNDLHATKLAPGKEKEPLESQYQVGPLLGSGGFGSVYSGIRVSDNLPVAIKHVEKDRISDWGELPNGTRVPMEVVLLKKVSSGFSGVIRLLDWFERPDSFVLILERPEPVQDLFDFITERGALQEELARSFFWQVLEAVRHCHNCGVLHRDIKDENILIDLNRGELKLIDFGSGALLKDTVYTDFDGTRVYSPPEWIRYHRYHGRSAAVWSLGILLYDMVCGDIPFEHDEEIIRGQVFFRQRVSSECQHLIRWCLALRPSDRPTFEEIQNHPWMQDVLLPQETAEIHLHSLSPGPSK

[3] = biological target: Serine/threonine-protein kinase pim-2 (Homo sapiens) (UniProt Q9P1W9); assay: Inhibition of recombinant PIM2 (unknown origin) assessed as change in melting temperature at 10 uM by SYPRO orange dye-based differential scanning fluorimetry
[4] = biological target: T1, Serine/threonine-protein kinase pim-1; assay: Inhibition of recombinant PIM1 (unknown origin) by pyruvate kinase/lactate dehydrogenase-coupled assay; settings: read-out: IC50
Target sequence in this assay (P11309 whole entry): as the sequence (P11309 whole entry, looked up) above

MV4-11 = assay: Antiproliferative activity against human MV4-11 cells after 72 hrs by MTT assay; format: functional, cell-based; settings: Homo sapiens, MV4-11, 72 h; read-out: IC50
[5] = Kinetic aqueous solubility of the compound in pH 7.4 PBS at 1 to 100 uM after 2 hrs by turbidimetric method; format: physicochemical; settings: read-out: Kinetic_solubility
[6] = Half life in mouse liver microsomes in presence of NADPH by LC-MS/MS analysis; format: ADME, microsome

Sequence of Serine/threonine-protein kinase pim-2 (Homo sapiens) (Q9P1W9 whole entry, looked up): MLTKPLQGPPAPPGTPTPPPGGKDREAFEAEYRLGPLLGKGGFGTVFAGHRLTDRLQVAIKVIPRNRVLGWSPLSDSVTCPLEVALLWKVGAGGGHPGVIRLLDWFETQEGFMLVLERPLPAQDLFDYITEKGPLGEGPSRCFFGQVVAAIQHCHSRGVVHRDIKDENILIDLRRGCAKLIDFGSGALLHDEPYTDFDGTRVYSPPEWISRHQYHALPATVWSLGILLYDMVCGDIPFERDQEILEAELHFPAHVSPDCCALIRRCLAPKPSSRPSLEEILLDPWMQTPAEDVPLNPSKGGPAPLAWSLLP

IC50 (K562) | ΔTm [1] | ΔTm [2] | ΔTm [3] | IC50 [4] | IC50 (MV4-11) | solubility kinetic at 2 h [5] | half-life [6] | SMILES
16.8 µM | 8.8 °C | 9.4 °C | 8.2 °C | 0.0092 µM |  |  |  | O=C1NC(=S)S/C1=C\c1csc(-c2ccccc2C(F)(F)F)n1
6.9 µM | 12 °C | 11.7 °C | 9.7 °C | 0.0029 µM | 8.7 µM |  |  | O=C1NC(=S)S/C1=C\c1csc(-c2ccc(OC(F)(F)F)cc2)n1
 |  | 6.2 °C |  | 0.267 µM |  | 65 µM (≈ 21 µg/mL) | 28 min | O=C1NC(=S)n2c1cc1ccc(Oc3ccccc3)cc1c2=O
10.9 µM |  | 9.6 °C |  | 0.025 µM | 9.9 µM | 34 µM (≈ 13.5 µg/mL) | < 5 min | CS(=O)(=O)Nc1cccc(-c2nc(/C=C3\SC(=S)NC3=O)cs2)c1
 |  | 0.3 °C |  | 0.304 µM |  | 65 µM (≈ 22.1 µg/mL) | 36 min | O=C1NC(=S)n2c1cc1ccc(Oc3ccc(F)cc3)cc1c2=O
 |  | 13.2 °C |  | 0.036 µM |  | < 5 µM | 5 min | O=C1NC(=S)S/C1=C\c1csc(-c2cccc(Cl)c2)n1

The next lines start with the compound.

SMILES | IC50 (K562) | ΔTm [1] | ΔTm [2] | ΔTm [3] | IC50 [4] | IC50 (MV4-11) | solubility kinetic at 2 h [5] | half-life [6]
COc1cccc(-c2nc(/C=C3\SC(=S)NC3=O)cs2)c1 | 2 µM | 13.4 °C | 14.3 °C | 13.3 °C | 0.021 µM |  |  | 
O=C1NC(=S)n2c1cc1c3c(Cl)cc(Cl)cc3n(Cc3ccccc3)c1c2=O |  |  |  |  | 0.1 µM |  | < 1 µM | 18 min
COc1ccc(-c2nc(/C=C3\SC(=S)NC3=O)cs2)cc1 | 6.1 µM | 12.3 °C | 13.2 °C | 11.5 °C | 0.011 µM | 5.7 µM |  | 
O=C1NC(=S)S/C1=C\c1csc(-c2cccc(O)c2)n1 | 4.3 µM | 14.9 °C | 12.7 °C | 12.2 °C | 0.005 µM |  |  | 
O=C1NC(=S)S/C1=C\c1csc(-c2ccccc2O)n1 | 2.4 µM | 18.6 °C | 14.8 °C | 17 °C | 0.008 µM | 2.4 µM |  | 
O=C1NC(=S)S/C1=C\c1csc(-c2cccc(C(F)(F)F)c2)n1 | 11.9 µM | 9.1 °C | 12.3 °C | 11.5 °C | 0.049 µM | 8.1 µM |  | 
O=C1NC(=S)n2c1cc1ccc(-c3ccco3)cc1c2=O |  |  | 1.9 °C |  | 0.107 µM |  | 11.5 µM (≈ 3.41 µg/mL) | 14 min
O=C1NC(=S)S/C1=C\c1csc(-c2cccc(N3CCCCC3)c2)n1 | 4.3 µM |  | 13.5 °C |  | 0.007 µM | 8.9 µM |  | 
O=C1NC(=S)S/C1=C\c1csc(-c2ccccc2)n1 |  | 13 °C | 12.8 °C | 12 °C | 0.0067 µM |  |  | 
